The record followed here is US9133217B2 (Salix Pharmaceuticals, Ltd, priority 2011, dated 2015).

Common to all, as to format: physicochemical
Data set [1] is described as follows: Stressing under various relative humidities / temperature and vacuum, resulting solid form by XRPD. As for the experimental part: The jar was sealed and stored at either ambient temperature or in an oven at elevated temperature.
(§1) X-ray powder diffraction (XRPD) analyses were performed using an Inel XRG-3000 diffractometer equipped with a CPS (Curved Position Sensitive) detector with a […] of 120°. Real time data were collected using Cu—Kα radiation. The tube voltage and amperage were set to 40 kV and 30 mA, respectively. The monochromator slit was set at 1-5 mm by 160 μm. […] Samples were prepared for analysis by packing them into thin-walled glass capillaries. Each capillary was mounted onto a goniometer head that is motorized to permit spinning of the capillary during data acquisition. The samples were analyzed for 300 seconds. Instrument calibration was performed using a silicon reference standard.
Samples were also analyzed using a PANalytical X'Pert Pro diffractometer. The specimen was analyzed using Cu radiation produced using an Optix long fine-focus source. An elliptically graded multilayer mirror was used to focus the Cu K α X-rays of the source through the specimen and onto the detector. The specimen was sandwiched between 3-micron thick films, analyzed in transmission geometry, and rotated to optimize orientation statistics. A beam-stop and a helium purge were used to minimize the background generated by air scattering. Soller slits were used for the incident and diffracted beams to minimize axial divergence. Diffraction patterns were collected using a scanning position-sensitive detector (X'Celerator) located 240 mm from the specimen […] a silicon specimen (NIST standard reference material 640c) was analyzed to verify the position of the silicon 111 peak.

Data set [2] is described as follows: Moisture sorption/desorption (dynamic vapor sorption, DVS). Conditions: for weight gain from 5 to 95% RH / weight gain (adsorption) from 5 to 95% RH: sorption 5 to 95% RH; for Post-DVS XRPD (solid form after moisture sorption): specimen after DVS cycle 5-95-5% RH; for hygroscopicity (in words): from moisture sorption/desorption. As for the experimental part:
Automated vapor sorption (VS) data were collected on a VTI SGA-100 Vapor Sorption Analyzer. NaCl and PVP were used as calibration standards. Samples were not dried prior to analysis. Sorption and desorption data were collected over a range from 5 to 95% RH at 10% RH increments under a nitrogen purge. The equilibrium criterion used for analysis was less than 0.0100% weight change in 5 minutes with a maximum equilibration time of 3 hours. Data were not corrected for the initial moisture content of the samples.
Moisture sorption/desorption data were collected on a VTI SGA-100 Vapor Sorption Analyzer. Sorption and desorption data were collected over a range of 5% to 95% relative humidity (RH) at 10% RH intervals under a nitrogen purge. Samples were not dried prior to analysis. Equilibrium criteria used for analysis were less than 0.0100% weight change in 5 minutes, with a maximum equilibration time of 3 hours if the weight criterion was not met. Data were not corrected for the initial moisture content of the samples. NaCl and PVP were used as calibration standards.

Data set [3] in a line: Rifaximin drying experiments, resulting solid form by XRPD. As for the experimental part:
as §1

“Also recorded” adds a separate entry of the source. Where two headings read alike, the source gives them in different places.

Turning to `CO[C@H]1/C=C/O[C@@]2(C)Oc3c(C)c(O)c4c(O)c(c5c(nc6cc(C)ccn65)c4c3C2=O)NC(=O)/C(C)=C\C=C\[C@H](C)[C@H](O)[C@@H](C)[C@@H](O)[C@@H](C)[C@H](OC(C)=O)[C@@H]1C` [Form Mu, Rifaximin], the “XRPD result after stress” value in data set [1] (59-62° C./Vacuum, ~24 hours) is on record as “γ”; in data set [1] (60° C./Vacuum, ~24 hours, listed as Form μ), “irreversibly desolvates to Form Gamma; also recorded: irreversibly desolvates to Form γ”; in data set [1] (60° C./Vacuum, ~24 hours, listed as Rifaximin Form μ), “γ”; in data set [1] (97% RH (RT), 16 days, listed as Form μ), “converted to Form Beta”; in data set [1] (97% RH (RT), 16 days, listed as Rifaximin Form μ), “μ + β”. Also, the “weight loss from 95 to 5% RH” value in data set [2] (DVS, desorption 95 to 5% RH, listed as rifaximin Form μ) is 9.3%. Also, the “initial weight loss upon equilibration at 5% RH” value in data set [2] (DVS, equilibration at 5% RH, listed as rifaximin Form μ) was 11.0%. In addition, the “weight gain from 5 to 95% RH” value in data set [2] (DVS, listed as rifaximin Form μ) is 9.5%. Further, in data set [2] (moisture balance, desorption), the “% wt lost from 95%-5% RH” value is listed as 9.3 % wt lost from 95%-5% RH. In data set [2] (moisture balance, equilibration at 5% RH, signed change), the “% wt change upon equilibration at 5% RH” value is recorded as −11.0 % wt change upon equilibration at 5% RH. The “% wt gain from 5%-95% RH” value in data set [2] (moisture balance, sorption) was 9.5 % wt gain from 5%-95% RH. For the same compound, the figures for the “Post-DVS XRPD (solid form after moisture sorption)” value (“Post-DVS XRPD” below) in data set [2] (listed as Rifaximin Form Mu) and in data set [2] (listed as rifaximin Form μ) were “Form γ” and “converted to Form Gamma”, respectively.
Consider `CO[C@H]1/C=C/O[C@@]2(C)Oc3c(C)c(O)c4c(O)c(c5c(nc6cc(C)ccn65)c4c3C2=O)NC(=O)/C(C)=C\C=C\[C@H](C)[C@H](O)[C@@H](C)[C@@H](O)[C@@H](C)[C@H](OC(C)=O)[C@@H]1C` [Form Gamma, Rifaximin, reference compound], for which the “weight loss from 95 to 5% RH” value in data set [2] (DVS, desorption 95 to 5% RH, listed as Rifaximin Form Gamma) came to 11.7%. In addition, the “initial weight loss upon equilibration at 5% RH” value in data set [2] (DVS, equilibration at 5% RH, listed as Rifaximin Form Gamma) was determined as 2.4%. Besides, the “weight gain from 5 to 95% RH” value in data set [2] (DVS, listed as Rifaximin Form Gamma) came to 10.8%. In addition, the “hygroscopicity (in words)” value in data set [2] (listed as Rifaximin Form Gamma) is recorded as “hygroscopic”. Moreover, in data set [3] (vac oven / under vacuum, ambient, 1 day, listed as Form γ), the “XRPD Form after drying” value is on record as “remained unchanged”.
In the case of `CO[C@H]1/C=C/O[C@@]2(C)Oc3c(C)c(O)c4c(O)c(c5c(nc6cc(C)ccn65)c4c3C2=O)NC(=O)/C(C)=C\C=C\[C@H](C)[C@H](O)[C@@H](C)[C@@H](O)[C@@H](C)[C@H](OC(C)=O)[C@@H]1C` [Form Theta, Rifaximin, reference compound], the “form after exposure to humidity (XRPD)” value is given as “μ + η” in data set [1] (75% RH (40° C.), 6 hrs); “convert at least partially to Form μ” in data set [1] (75% RH (RT), 6 hrs); “convert to Form μ” in data set [1] (75% RH (RT), 6 hrs, listed as Rifaximin Form Theta); “μ + ι” in data set [1] (75% RH (RT), 6 hrs, listed as θ).
Consider `CO[C@H]1/C=C/O[C@@]2(C)Oc3c(C)c(O)c4c(O)c(c5c(nc6cc(C)ccn65)c4c3C2=O)NC(=O)/C(C)=C\C=C\[C@H](C)[C@H](O)[C@@H](C)[C@@H](O)[C@@H](C)[C@H](OC(C)=O)[C@@H]1C` [Form Pi, Rifaximin], for which, in data set [2] (DVS, desorption 95 to 5% RH), the “weight lost from 95 to 5% RH” value was 11.3 wt % lost from 95 to 5% RH. Also, the “weight loss from 95 to 5% RH” value in data set [2] (DVS, desorption 95 to 5% RH, listed as Rifaximin Form Pi) was determined as 11.3%. Further, the “initial weight loss at 5% RH upon equilibration” value in data set [2] (DVS, equilibration at 5% RH) worked out at 1.3 wt %. Moreover, the “wt % change on equilibration at 5% RH” value in data set [2] (DVS, equilibration at 5% RH, signed change) is recorded as −1.3 wt % change on equilibration at 5% RH. For the same compound, the “weight gain (adsorption) from 5 to 95% RH” value is on record as 10.5 wt % in data set [2] (DVS, listed as Rifaximin Form Pi) and 10.5 wt % gain from 5 to 95% RH in data set [2] (DVS, listed as Rifaximin Pi). In data set [2] (listed as Rifaximin Form Pi), the “hygroscopicity (in words)” value is on record as “reversibly hygroscopic”. The “Post-DVS XRPD” value in data set [2] (listed as Rifaximin Form Pi) is listed as “Form Pi”; in data set [2] (listed as Rifaximin Pi) it was “Pi”.
For `CO[C@H]1/C=C/O[C@@]2(C)Oc3c(C)c(O)c4c(O)c(c5c(nc6cc(C)ccn65)c4c3C2=O)NC(=O)/C(C)=C\C=C\[C@H](C)[C@H](O)[C@@H](C)[C@@H](O)[C@@H](C)[C@H](OC(C)=O)[C@@H]1C` [Form Omicron, Rifaximin], the “wt % change on equilibration at 5% RH” value in data set [2] was −15.0 wt % change on equilibration at 5% RH. In addition, in data set [2] (DVS, equilibration at 5% RH, listed as Rifaximin Form Omicron), the “initial weight loss at 5% RH upon equilibration” value is recorded as roughly 15 wt %. The “Post-DVS XRPD” value in data set [2] (listed as Rifaximin Form Omicron) is reported as “Form Iota with a significant amount of disorder”.
In the case of `CO[C@H]1/C=C/O[C@@]2(C)Oc3c(C)c(O)c4c(O)c(c5c(nc6cc(C)ccn65)c4c3C2=O)NC(=O)/C(C)=C\C=C\[C@H](C)[C@H](O)[C@@H](C)[C@@H](O)[C@@H](C)[C@H](OC(C)=O)[C@@H]1C` [α dry, Rifaximin, reference compound], the “XRPD Form after stressing” value in data set [1] (58% RH, 2 days, room temperature) is reported as “β”; in data set [1] (75% RH, 2 days, room temperature) it was “β”; in data set [1] (94% RH, 2 days, room temperature) it was “β”.
Take `CO[C@H]1/C=C/O[C@@]2(C)Oc3c(C)c(O)c4c(O)c(c5c(nc6cc(C)ccn65)c4c3C2=O)NC(=O)/C(C)=C\C=C\[C@H](C)[C@H](O)[C@@H](C)[C@@H](O)[C@@H](C)[C@H](OC(C)=O)[C@@H]1C` [Form Eta, Rifaximin]: in data set [3] (vac oven, 40° C., 1 day, listed as η), the “XRPD Form after drying” value is “η”.
In the case of `CO[C@H]1/C=C/O[C@@]2(C)Oc3c(C)c(O)c4c(O)c(c5c(nc6cc(C)ccn65)c4c3C2=O)NC(=O)/C(C)=C\C=C\[C@H](C)[C@H](O)[C@@H](C)[C@@H](O)[C@@H](C)[C@H](OC(C)=O)[C@@H]1C` [α, Rifaximin, reference compound], in data set [1] (P205, 4 days, room temperature), the “XRPD Form after stressing” value was “α dry”.
Turning to `CO[C@H]1/C=C/O[C@@]2(C)Oc3c(C)c(O)c4c(O)c(c5c(nc6cc(C)ccn65)c4c3C2=O)NC(=O)/C(C)=C\C=C\[C@H](C)[C@H](O)[C@@H](C)[C@@H](O)[C@@H](C)[C@H](OC(C)=O)[C@@H]1C` [Form Xi, Rifaximin], the “weight loss from 95 to 5% RH” value in data set [2] (DVS, desorption 95 to 5% RH, listed as rifaximin Form Xi) worked out at 10.5%. For the same compound, in data set [2] (DVS, equilibration at 5% RH, listed as rifaximin Form Xi), the “initial weight loss upon equilibration at 5% RH” value turned out to be 7.2%. In addition, the “weight gain from 5 to 95% RH” value in data set [2] (DVS, listed as rifaximin Form Xi) came out at 7.9%. In addition, the “Post-DVS XRPD” value in data set [2] (listed as rifaximin Form Xi) is reported as “became disordered”.
On to `CO[C@H]1/C=C/O[C@@]2(C)Oc3c(C)c(O)c4c(O)c(c5c(nc6cc(C)ccn65)c4c3C2=O)NC(=O)/C(C)=C\C=C\[C@H](C)[C@H](O)[C@@H](C)[C@@H](O)[C@@H](C)[C@H](OC(C)=O)[C@@H]1C` [Form Zeta, Rifaximin], for which the “XRPD Form after stressing” value in data set [1] (43% RH, 3 days, room temperature) is recorded as “conversion to Form γ”; in data set [1] (43% RH, 3 days, room temperature, listed as Form ζ), “conversion to Form γ”; in data set [1] (43% RH, 3 days, room temperature, listed as ζ), “γ”; in data set [1] (58% RH, 3 days, room temperature, listed as ζ) it was “ζ”; in data set [1] (75% RH, 3 days, room temperature, listed as ζ) it was “ζ”; in data set [1] (94% RH, 3 days, room temperature, listed as Form ζ), “Form γ+γ−1”. Further, the “XRPD Form after stressing” value in data set [1] (94% RH, 3 days, room temperature, listed as ζ) is on record as “β + ζ”; in data set [1] (stability chamber 75% RH @40° C., 1 day), “ζ + Y”. For the same compound, the “form after exposure to humidity (XRPD)” value in data set [1] (51% RH (RT), ~20 min) is reported as “converts to Form Mu”; in data set [1] (51% RH (RT), ~20 min, listed as ζ) it was “μ”. The “XRPD Form after drying” value in data set [3] (air dry) is “γ”; in data set [3] (open vial in hood) it was “γ”; in data set [3] (vac dry), “γ + η”; in data set [3] (vac oven / under vacuum, ambient, 1 day), “Form η”; in data set [3] (vac oven / under vacuum, ambient, 1 day, listed as ζ), “η”; in data set [3] (vac oven, 40° C., 1 day) it was “remained unchanged”. Also, the “XRPD Form after drying” value in data set [3] (vac oven, 45° C., 2 days) is recorded as “η”. Also, the “XRPD Form after storage” value in data set [3] (stored in refrigerator 3 weeks) is listed as “ζ”.
